{
  "source": "patent US20150148551A1",
  "about": "“GENISTEIN FOR REDUCING LEVELS OF STORAGE COMPOUNDS IN THE TREATMENT AND/OR PREVENTION OF LYSOSOMAL STORAGE DISEASES (LSDS)” (3G THERAPEUTICS, INC., priority 2012, published 2015)",
  "type_in_all_cases": "cell-based, human",
  "key": {"[1]": {"tested_on": "HS3ST3A1", "experiment": "DNA microarray, HS3ST3A1 expression in fibroblasts exposed to genistein", "description": "(§1) The experiments were conducted to characterise the transcriptomic profile of human fibroblast cells exposed to genistein, and in particular to determine the expression of genes encoding lysosomal enzymes involved in metabolism (i.e. synthesis and degradation) of organic substances. The absence or deficiency of these enzymes' activity is responsible for occurrence of various lysosomal storage diseases (LSD) (including MPS). The tested hypothesis assumed that genistein influences the expression of many genes, among which there are genes coding for enzymes required in metabolism of compounds, which are pathologically stored in LSD. The results provide important information regarding genistein action on the molecular level within the range of gene expression modulation by this substance. The experiment was conducted in biological quintuplicates. Human dermal fibroblasts (HDFa) were exposed in vitro for 1, 24 or 48 hours to: 30, 60 or 100 μM of genistein; 0.05% DMSO (K1); or were untreated (control cells) (K2), and total RNA was isolated and analysed.\n(§2) Fibroblast cells were grown in Dulbecco (DMEM) medium supplemented with 10% fetal bovine serum (FBS) with the addition of 1% antibiotics and anti-fungal agents at 37° C. in humidified atmosphere of 5% CO2, until the required confluency was obtained.\n(§3) To determine the effect of tested compound on the transcriptom of the fibroblast cells, the growth medium was replaced with fresh medium, either non-supplemented (0.05% DMSO), or containing genistein (30, 60 or 100 μM, in 0.05% DMSO). The exposure was done for 1, 24 or 48 hours.\n(§4) Total RNA was isolated from fibroblasts using High Pure RNA Isolation Kit according to the protocol and then it was quantitatively evaluated using Quant-It™ RiboGreen® Assay Kit.\n(§5) Biotinylated cRNA was prepared using Ambion Total PrepAmp Kit for Illumina arrays.\n(§6) Standard hybridization and quantitative image analysis procedures—Illumina hybridization protocol and Illumina scanning protocol, were used.\n(§7) Processing of the results was done during data definition, including: background correction (using background subtraction method), normalization (using quantile normalization algorithm with Illumina GenomeStudio software package: gene expression module version 1.9.0) and summarization (using method, which sums the values of signal intensities from a set of probes)."}, "[2]": {"tested_on": "XYLT1", "experiment": "DNA microarray, XYLT1 expression in fibroblasts exposed to genistein", "description": "as §1, §2, §3, §4, §5, §6, §7"}, "[3]": {"tested_on": "ST3GAL4", "experiment": "DNA microarray, ST3GAL4 expression in fibroblasts exposed to genistein", "description": "as §1, §2, §3, §4, §5, §6, §7"}, "[4]": {"tested_on": "ST3GAL6", "experiment": "DNA microarray, ST3GAL6 expression in fibroblasts exposed to genistein", "description": "as §1, §2, §3, §4, §5, §6, §7"}, "[5]": {"tested_on": "IDUA", "experiment": "DNA microarray, IDUA expression in fibroblasts exposed to genistein", "settings": "for IDUA fold change Average: 48 h vs DMSO", "description": "as §1, §2, §3, §4, §5, §6, §7"}, "[6]": {"tested_on": "NAGLU", "experiment": "DNA microarray, NAGLU expression in fibroblasts exposed to genistein", "settings": "for NAGLU fold change Average: 48 h vs DMSO", "description": "as §1, §2, §3, §4, §5, §6, §7"}, "[7]": {"tested_on": "HYAL3", "experiment": "DNA microarray, HYAL3 expression in fibroblasts exposed to genistein", "settings": "30 μM", "description": "as §1, §2, §3, §4, §5, §6, §7"}},
  "data": [
    {"smiles": "O=c1c(-c2ccc(O)cc2)coc2cc(O)cc(O)c12", "note": "[genistein, 4′,5,7-trihydroxy-3-phenylchromen-4-one]", "values": [
      {"measurement": "HS3ST3A1 fold change Average 1h30/1hK1", "setting": "[1]; 30 μM, 1 h vs 0.05% DMSO", "result": 1.027, "unit": "fold change"},
      {"measurement": "HS3ST3A1 fold change Average 24h30/24hK1", "setting": "[1]; 30 μM, 24 h vs 0.05% DMSO", "result": 0.835, "unit": "fold change"},
      {"measurement": "HS3ST3A1 fold change Average 48h30/48hK1", "setting": "[1]; 30 μM, 48 h vs 0.05% DMSO", "result": 0.7933, "unit": "fold change"},
      {"measurement": "HS3ST3A1 fold change Average 1h60/1hK1", "setting": "[1]; 60 μM, 1 h vs 0.05% DMSO", "result": 0.9002, "unit": "fold change"},
      {"measurement": "HS3ST3A1 fold change Average 24h60/24hK1", "setting": "[1]; 60 μM, 24 h vs 0.05% DMSO", "result": 0.5744, "unit": "fold change"},
      {"measurement": "HS3ST3A1 fold change Average 48h61/48hK1", "setting": "[1]; 60 μM, 48 h vs 0.05% DMSO", "result": 0.6043, "unit": "fold change"},
      {"measurement": "HS3ST3A1 fold change Average 1h100/1hK1", "setting": "[1]; 100 μM, 1 h vs 0.05% DMSO", "result": 1.047, "unit": "fold change"},
      {"measurement": "HS3ST3A1 fold change Average 24h100/24hK1", "setting": "[1]; 100 μM, 24 h vs 0.05% DMSO", "result": 0.5452, "unit": "fold change"},
      {"measurement": "HS3ST3A1 fold change Average 48h100/48hK1", "setting": "[1]; 100 μM, 48 h vs 0.05% DMSO", "result": 0.569, "unit": "fold change"},
      {"measurement": "XYLT1 fold change Average 1h30/1hK1", "setting": "[2]; 30 μM, 1 h vs 0.05% DMSO", "result": 1.058, "unit": "fold change"},
      {"measurement": "XYLT1 fold change Average 24h30/24hK1", "setting": "[2]; 30 μM, 24 h vs 0.05% DMSO", "result": 0.8611, "unit": "fold change"},
      {"measurement": "XYLT1 fold change Average 48h30/48hK1", "setting": "[2]; 30 μM, 48 h vs 0.05% DMSO", "result": 0.9745, "unit": "fold change"},
      {"measurement": "XYLT1 fold change Average 24h60/24hK1", "setting": "[2]; 60 μM, 24 h vs 0.05% DMSO", "result": 0.6217, "unit": "fold change"},
      {"measurement": "XYLT1 fold change Average 1h100/1hK1", "setting": "[2]; 100 μM, 1 h vs 0.05% DMSO", "result": 1, "unit": "fold change"},
      {"measurement": "XYLT1 fold change Average 24h100/24hK1", "setting": "[2]; 100 μM, 24 h vs 0.05% DMSO", "result": 0.6324, "unit": "fold change"},
      {"measurement": "XYLT1 fold change Average 48h100/48hK1", "setting": "[2]; 100 μM, 48 h vs 0.05% DMSO", "result": 0.921, "unit": "fold change"},
      {"measurement": "ST3GAL4 fold change Average 1h30/1hK1", "setting": "[3]; 30 μM, 1 h vs 0.05% DMSO", "result": 0.9885, "unit": "fold change"},
      {"measurement": "ST3GAL4 fold change Average 24h30/24hK1", "setting": "[3]; 30 μM, 24 h vs 0.05% DMSO", "result": 0.782, "unit": "fold change"},
      {"measurement": "ST3GAL4 fold change Average 48h30/48hK1", "setting": "[3]; 30 μM, 48 h vs 0.05% DMSO", "result": 1.065, "unit": "fold change"},
      {"measurement": "ST3GAL4 fold change Average 1h60/1hK1", "setting": "[3]; 60 μM, 1 h vs 0.05% DMSO", "result": 0.9205, "unit": "fold change"},
      {"measurement": "ST3GAL4 fold change Average 24h60/24hK1", "setting": "[3]; 60 μM, 24 h vs 0.05% DMSO", "result": 0.9205, "unit": "fold change"},
      {"measurement": "ST3GAL4 fold change Average 48h61/48hK1", "setting": "[3]; 60 μM, 48 h vs 0.05% DMSO", "result": 0.9931, "unit": "fold change"},
      {"measurement": "ST3GAL4 fold change Average 1h100/1hK1", "setting": "[3]; 100 μM, 1 h vs 0.05% DMSO", "result": 0.8637, "unit": "fold change"},
      {"measurement": "ST3GAL4 fold change Average 24h100/24hK1", "setting": "[3]; 100 μM, 24 h vs 0.05% DMSO", "result": 0.6646, "unit": "fold change"},
      {"measurement": "ST3GAL4 fold change Average 48h100/48hK1", "setting": "[3]; 100 μM, 48 h vs 0.05% DMSO", "result": 0.8911, "unit": "fold change"},
      {"measurement": "ST3GAL6 fold change Average 1h30/1hK1", "setting": "[4]; 30 μM, 1 h vs 0.05% DMSO", "result": 1.234, "unit": "fold change"},
      {"measurement": "ST3GAL6 fold change Average 24h30/24hK1", "setting": "[4]; 30 μM, 24 h vs 0.05% DMSO", "result": 0.9878, "unit": "fold change"},
      {"measurement": "ST3GAL6 fold change Average 48h30/48hK1", "setting": "[4]; 30 μM, 48 h vs 0.05% DMSO", "result": 1.015, "unit": "fold change"},
      {"measurement": "ST3GAL6 fold change Average 1h60/1hK1", "setting": "[4]; 60 μM, 1 h vs 0.05% DMSO", "result": 1.072, "unit": "fold change"},
      {"measurement": "ST3GAL6 fold change Average 1h100/1hK1", "setting": "[4]; 100 μM, 1 h vs 0.05% DMSO", "result": 1.064, "unit": "fold change"},
      {"measurement": "ST3GAL6 fold change Average 24h100/24hK1", "setting": "[4]; 100 μM, 24 h vs 0.05% DMSO", "result": 0.7371, "unit": "fold change"},
      {"measurement": "ST3GAL6 fold change Average 48h100/48hK1", "setting": "[4]; 100 μM, 48 h vs 0.05% DMSO", "result": 0.7409, "unit": "fold change"},
      {"measurement": "IDUA fold change Average 1h30/1hK1", "setting": "[5]; 30 μM, 1 h vs 0.05% DMSO", "result": 0.8853, "unit": "fold change"},
      {"measurement": "IDUA fold change Average", "setting": "[5]; 30 μM", "result": 1.1407, "unit": "fold change"},
      {"measurement": "IDUA fold change Average 1h60/1hK1", "setting": "[5]; 60 μM, 1 h vs 0.05% DMSO", "result": 0.9788, "unit": "fold change"},
      {"measurement": "IDUA fold change Average", "setting": "[5]; 60 μM", "result": 1.212, "unit": "fold change"},
      {"measurement": "IDUA fold change Average 1h100/1hK1", "setting": "[5]; 100 μM, 1 h vs 0.05% DMSO", "result": 0.9034, "unit": "fold change"},
      {"measurement": "IDUA fold change Average", "setting": "[5]; 100 μM", "result": 1.309, "unit": "fold change"},
      {"measurement": "NAGLU fold change Average 1h30/1hK1", "setting": "[6]; 30 μM, 1 h vs 0.05% DMSO", "result": 1.055, "unit": "fold change"},
      {"measurement": "NAGLU fold change Average", "setting": "[6]; 30 μM", "result": 1.1022, "unit": "fold change"},
      {"measurement": "NAGLU fold change Average 1h60/1hK1", "setting": "[6]; 60 μM, 1 h vs 0.05% DMSO", "result": 1.061, "unit": "fold change"},
      {"measurement": "NAGLU fold change Average", "setting": "[6]; 60 μM", "result": 1.231, "unit": "fold change"},
      {"measurement": "NAGLU fold change Average 1h100/1hK1", "setting": "[6]; 100 μM, 1 h vs 0.05% DMSO", "result": 1.037, "unit": "fold change"},
      {"measurement": "NAGLU fold change Average", "setting": "[6]; 100 μM", "result": 1.303, "unit": "fold change"},
      {"measurement": "HYAL3 fold change Average 1h30/1hK1", "setting": "[7]; 1 h vs 0.05% DMSO", "result": 1.1887, "unit": "fold change"},
      {"measurement": "HYAL3 fold change Average", "setting": "[7]; 48 h vs DMSO", "result": 0.8605, "unit": "fold change"}
    ]}
  ]
}
